Measurements as given in patent US20040034019A1, “Piperazine and piperidine derivatives” (priority 2002, published 2004).

System: rat embryo ventral mesencephalic cells
Test: Neuroprotection assay (NMDA neuroexcitotoxic injury, high affinity 3H-dopamine uptake)
Assay type: cell-based, Sprague-Dawley rat
Conditions: embryonic day 15 rat VM cell culture, NMDA (100-400 μM) for 20 hours
Source text: The neuroprotective activity of the compounds of this invention may be assayed using rat embryo ventral mesencephalic cells in culture which are subsequently exposed to the glutamate receptor agonist NMDA. This assay is described in detail in the example section.
The ventral mesencephalic region was dissected out of embryonic day 15 Sprague-Dawley rat embryos (Harlan), dissociated into single cell suspension by a combination of trypsinization and trituration (Costantini et al., Neurobiol Dis., pp. 97-106 (1998). Dissociated VM cells were plated into poly-L-ornithine-coated 96-well plates at a density of 85,000 cells/well in 100 uL of DMEM supplemented with 18% heat-inactivated horse serum, 0.24% glucose, 2 mM glutamine and 50 u/ml penicillin/streptomycin and incubated in a 5% CO2 incubator. After one day in culture (DIV1), the medium was replaced with 100 μL of a defined medium (DMEM supplemented with 1× N2 cocktail (Gibco-BRL), 0.12% glucose, 2 mM glutamine, and 50 units/ml penicillin/streptomycin) containing DMSO or various concentrations of the compounds of this invention. On DIV5, neuroexcitotoxic injury was induced by the addition of various concentrations of the glutamate receptor agonist NMDA (100-400 μM). Cultures were incubated with the neurotoxin for 20 hours and the effects of neurophilin compounds were assessed using high affinity ^3H-dopamine uptake according to a procedure published by Park and Mytilineou [Brain Res., 599, pp. 83-97 (1992)].

| SMILES | EC50 [nM] |
| --- | --- |
| O=C([C@@H]1C=CCN1Cc1ccccc1)N1CCN(C(c2ccc(F)cc2)c2ccc(F)cc2)CC1 [Compound 237] | > 500 |
| CCN1CC[C@H](C)[C@H]1C(=O)N1CCC(Cc2ccccc2)CC1 [Compound 238] | < 100 |
| O=C(C1[C@H]2C[C@@H]2CN1Cc1ccccc1)N1CCN(C(c2ccc(F)cc2)c2ccc(F)cc2)CC1 (stereo partly drawn) [Compound 239] | > 500 |
| CCN1C(C)CC[C@H]1C(=O)N1CCC(Cc2ccccc2)CC1 (stereo partly drawn) [Compound 240] | < 100 |
| C[C@H]1CCN(Cc2ccccc2)[C@@H]1C(=O)N1CCN(C(c2ccc(F)cc2)c2ccc(F)cc2)CC1 [Compound 241] | > 500 |
| CCN1CCC[C@]1(C)C(=O)N1CCC(Cc2ccccc2)CC1 [Compound 242] | < 100 |
| CC1CC[C@@H](C(=O)N2CCN(C(c3ccc(F)cc3)c3ccc(F)cc3)CC2)N1Cc1ccccc1 (stereo partly drawn) [Compound 243] | > 500 |
| CCN1CSC[C@H]1C(=O)N1CCC(Cc2ccccc2)CC1 [Compound 244] | > 500 |
| C[C@@]1(C(=O)N2CCN(C(c3ccc(F)cc3)c3ccc(F)cc3)CC2)CCCN1Cc1ccccc1 [Compound 245] | 100 to 500 |
| CCN1[C@@H](C(=O)N2CCC(Cc3ccccc3)CC2)CC[C@H]1c1ccccc1 [Compound 246] | < 100 |
| O=C([C@H]1CC[C@@H](c2ccccc2)N1Cc1ccccc1)N1CCN(C(c2ccc(F)cc2)c2ccc(F)cc2)CC1 [Compound 247] | > 500 |
| CCN1[C@@H](c2ccccc2)CC[C@H]1C(=O)N1CCC(Cc2ccccc2)CC1 [Compound 248] | 100 to 500 |
| O=C([C@@H]1CC[C@H](c2ccccc2)N1Cc1ccccc1)N1CCN(C(c2ccc(F)cc2)c2ccc(F)cc2)CC1 [Compound 249] | > 500 |
| CCN1CC(c2ccccc2)C[C@H]1C(=O)N1CCC(Cc2ccccc2)CC1 (stereo partly drawn) [Compound 250] | > 500 |
| O=C([C@@H]1C[C@@H](c2ccccc2)CN1Cc1ccccc1)N1CCN(C(c2ccc(F)cc2)c2ccc(F)cc2)CC1 [Compound 251] | > 500 |
| CCN1CC[C@@H](c2ccccc2)[C@H]1C(=O)N1CCC(Cc2ccccc2)CC1 [Compound 252] | > 500 |
| O=C([C@@H]1[C@H](c2ccccc2)CCN1Cc1ccccc1)N1CCN(C(c2ccc(F)cc2)c2ccc(F)cc2)CC1 [Compound 253] | > 500 |
| CCN1CC[C@H]1C(=O)N1CCN(C(c2ccc(F)cc2)c2ccc(F)cc2)CC1 [Compound 254] | 100 to 500 |
| CCN1CCC[C@H]1C(=O)N1CCC(Cc2ccc(F)cc2)CC1 [Compound 259] | 100 to 500 |
| C=CCN1CCC[C@H]1C(=O)N1CCC(Cc2ccc(F)cc2)CC1 [Compound 263] | < 100 |
| CC(C)=CCN1CCC[C@H]1C(=O)N1CCC(Cc2ccc(F)cc2)CC1 [Compound 265] | < 100 |
| O=C([C@@H]1CCCN1CC1CC1)N1CCC(Cc2ccc(F)cc2)CC1 [Compound 267] | < 100 |
| O=C([C@@H]1CCCN1C/C=C/c1ccccc1)N1CCC(Cc2ccc(F)cc2)CC1 [Compound 269] | 100 to 500 |
| O=C([C@@H]1CCCN1Cc1ccc(F)cc1)N1CCC(Cc2ccc(F)cc2)CC1 [Compound 271] | < 100 |
| O=C(C1CCN(Cc2ccccc2)CC1)N1CCC(Cc2ccc(F)cc2)CC1 [Compound 272] | 100 to 500 |
| O=C([C@@H]1CCCN1CCc1ccccc1)N1CCC(Cc2ccc(F)cc2)CC1 [Compound 273] | < 100 |
| Cc1ccc(CN2CCC[C@H]2C(=O)N2CCC(Cc3ccc(F)cc3)CC2)cc1 [Compound 275] | < 100 |
| O=C([C@@H]1CCCN1Cc1ccc(F)c(F)c1)N1CCC(Cc2ccc(F)cc2)CC1 [Compound 277] | < 100 |
| O=C(C1CCN(CC2CC2)CC1)N1CCC(Cc2ccc(F)cc2)CC1 [Compound 278] | < 100 |
| O=C([C@@H]1CCCN1Cc1cccc(F)c1)N1CCC(Cc2ccc(F)cc2)CC1 [Compound 279] | < 100 |
